Reference: PubChem BioAssay (NCI)
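Compound exposure: 48 hours, 5 concentrations, 96-well plates. Here, GI50 denotes the concentration required for 50% inhibition of growth. TGI: total growth inhibition.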

How the values were obtained:
Test in all cases: growth of human tumour cells (NCI), 48 h
[1] = system: 786-0 renal
[2] = system: SNB-19 CNS
[3] = system: KM12 colon
[4] = system: MCF7 breast
[5] = system: A498 renal
[6] = system: UACC-62 melanoma
[7] = system: SW-620 colon
[8] = system: SK-MEL-2 melanoma
[9] = system: OVCAR-3 ovarian
[10] = system: SK-MEL-5 melanoma
[11] = system: ACHN renal
[12] = system: K-562 leukemia
[13] = system: NCI-H23 lung
[14] = system: HCT-116 colon
[15] = system: SF-295 CNS
[16] = system: HOP-92 NSCLC
[17] = system: HCT-15 colon
[18] = system: MDA-MB-231 breast
[19] = system: SF-539 CNS
[20] = system: UACC-257 melanoma
[21] = system: HCC-2998 colon
[22] = system: SK-MEL-28 melanoma
[23] = system: CCRF-CEM leukemia
[24] = system: BT-549 breast
[25] = system: U251 CNS
[26] = system: TK-10 renal
[27] = system: IGROV1 ovarian
[28] = system: CAKI-1 renal
[29] = system: EKVX NSCLC
[30] = system: MDA-MB-435
[31] = system: HOP-62 NSCLC
[32] = system: MOLT-4 leukemia
[33] = system: RPMI-8226 leukemia
[34] = system: SNB-75 CNS
[35] = system: NCI-H522 lung
[36] = system: HL-60(TB) leukemia
[37] = system: HS 578T breast
[38] = system: SR leukemia
[39] = system: SF-268 CNS
[40] = system: OVCAR-4 ovarian
[41] = system: SK-OV-3 ovarian
[42] = system: SN12C renal
[43] = system: NCI-H226 lung
[44] = system: PC-3 prostate
[45] = system: RXF 393 renal
[46] = system: DU-145 prostate
[47] = system: NCI-H460 lung
[48] = system: M14 melanoma
[49] = system: COLO 205 colon
[50] = system: A549 NSCLC
[51] = system: OVCAR-8 ovarian
[52] = system: UO-31 renal
[53] = system: HT29 colon

CCN1C(=O)N(CC)C2C1NN=c1s/c(=C3\C(=O)N(CCC(C)C)c4ccccc43)c(=O)n12 (stereo not drawn)
GI50 [1]: 1.83 µM | TGI [1]: 4.5 µM | GI50 [2]: 2.39 µM | TGI [2]: 11.5 µM | GI50 [3]: 0.616 µM | TGI [3]: 11.4 µM | GI50 [4]: 0.412 µM | TGI [4]: 41.9 µM | GI50 [5]: 0.477 µM | TGI [5]: 2.59 µM | GI50 [6]: 0.607 µM | TGI [6]: 8.04 µM | GI50 [7]: 1.08 µM | TGI [7]: > 100 µM | GI50 [8]: 2.32 µM | TGI [8]: 11.4 µM | GI50 [9]: 1.75 µM | TGI [9]: 4.33 µM | GI50 [10]: 1.55 µM | TGI [10]: 3.41 µM | GI50 [11]: 1.86 µM | TGI [11]: 6.7 µM | GI50 [12]: 0.586 µM | TGI [12]: > 100 µM | GI50 [13]: 1.9 µM | TGI [13]: 5.47 µM | GI50 [14]: 1.06 µM | TGI [14]: 2.49 µM | GI50 [15]: 1.34 µM | TGI [15]: 3.86 µM | GI50 [16]: 1.47 µM | TGI [16]: 5.83 µM | GI50 [17]: 1.31 µM | TGI [17]: 3.75 µM | GI50 [18]: 1.66 µM | TGI [18]: 3.42 µM | GI50 [19]: 1.11 µM | TGI [19]: 2.42 µM | GI50 [20]: 3.72 µM | TGI [20]: > 100 µM | GI50 [21]: 1.92 µM | TGI [21]: 4.54 µM | GI50 [22]: 2.58 µM | TGI [22]: > 100 µM | GI50 [23]: 2.66 µM | TGI [23]: > 100 µM | GI50 [24]: 1.96 µM | TGI [24]: 6.33 µM | GI50 [25]: 1.88 µM | TGI [25]: 9.81 µM | GI50 [26]: 9.44 µM | TGI [26]: 71.7 µM | GI50 [27]: 1.23 µM | TGI [27]: 6.63 µM | GI50 [28]: 0.686 µM | TGI [28]: 4.17 µM | GI50 [29]: 1.34 µM | TGI [29]: > 100 µM | GI50 [30]: 0.308 µM | TGI [30]: 1.14 µM | GI50 [31]: 1.89 µM | TGI [31]: 6.45 µM | GI50 [32]: 2.86 µM | TGI [32]: > 100 µM | GI50 [33]: 1.68 µM | TGI [33]: 5.77 µM | GI50 [34]: 0.802 µM | TGI [34]: 2.5 µM | GI50 [35]: 1.01 µM | TGI [35]: 4.18 µM | GI50 [36]: 2.12 µM | TGI [36]: 4.5 µM | GI50 [37]: 1.08 µM | TGI [37]: 4.87 µM | GI50 [38]: 0.456 µM | TGI [38]: > 100 µM | GI50 [39]: 2.8 µM | TGI [39]: 20.5 µM | GI50 [40]: 1.02 µM | TGI [40]: > 100 µM | GI50 [41]: 2.53 µM | TGI [41]: 18 µM | GI50 [42]: 2.01 µM | TGI [42]: 4.99 µM | GI50 [43]: 2.52 µM | TGI [43]: 7.69 µM | GI50 [44]: 2.91 µM | TGI [44]: > 100 µM | GI50 [45]: 0.738 µM | TGI [45]: 3.62 µM | GI50 [46]: 2.91 µM | TGI [46]: 9.33 µM

COC(=O)c1cccc(NC(=O)Nc2ccc3oc(=O)c4ccccc4c3c2)c1
GI50 [4]: > 100 µM | TGI [4]: > 100 µM | GI50 [47]: > 100 µM | TGI [47]: > 100 µM | GI50 [7]: > 100 µM | TGI [7]: > 100 µM | GI50 [9]: > 100 µM | TGI [9]: > 100 µM | GI50 [48]: > 100 µM | TGI [48]: > 100 µM | GI50 [12]: > 100 µM | TGI [12]: > 100 µM | GI50 [13]: > 100 µM | TGI [13]: > 100 µM | GI50 [16]: > 100 µM | TGI [16]: > 100 µM | GI50 [17]: > 100 µM | TGI [17]: > 100 µM | GI50 [18]: 3.89 µM | TGI [18]: > 100 µM | GI50 [20]: > 100 µM | TGI [20]: > 100 µM | GI50 [49]: > 100 µM | TGI [49]: > 100 µM | GI50 [22]: > 100 µM | TGI [22]: > 100 µM | GI50 [23]: 12.1 µM | TGI [23]: 26.2 µM | GI50 [50]: > 100 µM | TGI [50]: > 100 µM | GI50 [27]: > 100 µM | TGI [27]: > 100 µM | GI50 [29]: > 100 µM | TGI [29]: > 100 µM | GI50 [32]: 36.2 µM | TGI [32]: > 100 µM | GI50 [33]: 24.5 µM | TGI [33]: > 100 µM | GI50 [51]: > 100 µM | TGI [51]: > 100 µM | GI50 [35]: 4.91 µM | TGI [35]: > 100 µM | GI50 [36]: 46.5 µM | TGI [36]: > 100 µM | GI50 [52]: > 100 µM | TGI [52]: > 100 µM | GI50 [38]: 37 µM | TGI [38]: > 100 µM | GI50 [39]: 3.5 µM | TGI [39]: > 100 µM | GI50 [41]: > 100 µM | TGI [41]: > 100 µM | GI50 [53]: > 100 µM | TGI [53]: > 100 µM | GI50 [46]: > 100 µM | TGI [46]: > 100 µM
